The source of these data is patent US20070161542A1, “Ptb1b photoprobes” (priority 2003, published 2007).

This assay concerns the target T1, full-length PTP1B in SF9 lysate (Homo sapiens, UniProt P18031).
T1 construct: Infected SF9 cell lysate expressing full-length PTP1B (as a flag fusion); made in house; host or cells: SF9 insect cells (infected), used as crude lysate
T1 sequence (P18031 1-435): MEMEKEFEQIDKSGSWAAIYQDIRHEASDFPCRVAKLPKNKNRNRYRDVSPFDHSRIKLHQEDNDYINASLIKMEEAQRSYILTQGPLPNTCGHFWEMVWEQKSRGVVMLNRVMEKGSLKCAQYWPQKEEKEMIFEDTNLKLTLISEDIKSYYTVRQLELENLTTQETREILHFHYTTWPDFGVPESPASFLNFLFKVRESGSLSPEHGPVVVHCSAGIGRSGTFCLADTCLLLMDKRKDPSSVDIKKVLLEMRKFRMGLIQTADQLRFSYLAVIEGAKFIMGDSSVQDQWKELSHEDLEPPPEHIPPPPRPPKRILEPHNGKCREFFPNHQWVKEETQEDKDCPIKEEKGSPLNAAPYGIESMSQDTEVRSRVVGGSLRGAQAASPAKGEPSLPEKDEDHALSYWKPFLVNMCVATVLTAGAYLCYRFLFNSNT
The assay is described as follows: Photolabeling of SF9 cell lysate overexpressing PTP1B. It is filed as binding. Particulars: PTP1B 1% wt/wt protein. The source says:
Protein tyrosine phosphatases used in this study were expressed and purified using published procedures, as follows: (a) Flag-PTP1B (residues 1-320 as a flag fusion), Huyer et al. (29). (b) Flag-TCPTP (residues 1-281 as a flag fusion), Asante-Appiah et al. (30). (c) Flag-CD45 (residues 556-1268 as a flag fusion), Wang et al. (31). (d) Mutant C215S-PTP1B (residues 1-320 as a gst fusion), Skorey et al. (28). (e) Infected SF9 cell lysate expressing full-length PTP1B (as a flag fusion), Cromlish et al. (25). For studies using H2O2-inactivated Flag-PTP1B, 100 μl of 2 μg/ml PTP1B was incubated with 100 μl of 1 mM or 20 mM H2O2 for 15 min to obtain 50% or 100% inactivated enzyme respectively as determined by the enzyme kinetic assay.
All photolabeling experiments with purified enzymes or SF9 cell lysate overexpressing PTP1B were conducted in 96-well polystyrene plates in 50 μl BisTris buffer (50 mM BisTris pH 6.3, 2 mM EDTA, 1 mM DMH) containing enzyme (in BisTris buffer with 20% glycerol, 0.01% Triton X-100) or lysate and Example 9 (in water) or Example 1 (in water) at various concentrations and shaken for 1 min at room temperature. […] Autoradiography of the dried, coommassie-stained gel was done using Phosphorimaging (Molecular Devices) or by x-ray film (BioMax MS with intensifier screen, Kodak) and quantified by densitometry. […]

Consider `NC(=O)[C@H](Cc1ccc(C(F)(F)P(=O)(O)O)cc1)NC(=O)[C@H](Cc1ccc(C(F)(F)P(=O)(O)O)cc1)NC(=O)c1cc(I)cc(C2(C(F)(F)F)N=N2)c1` [Example 9, 4-(Difluoro(phosphono)methyl)-N-(3-iodo-5-(3-(trifluoromethyl)-3H-diaziren-3-yl)benzoyl)-L-phenylalanyl-4-(difluoro(phosphono)methyl)-L-phenylalaninamide], for which the “labeling of SF9 overexpressed PTP1B” value is recorded as “labeled SF9 overexpressed PTP1B”.
